According to publication PMC8838415, “Discovery of Novel Pleuromutilin Derivatives as Potent Antibacterial Agents for the Treatment of MRSA Infection” (Molecules, 2022):
In brackets after ≈: the same amount, converted by molar mass. Like-named read-outs stand apart in the source and are kept apart here.

What was measured:
[1] = tested on: methicillin-resistant S. aureus (ATCC 43300); test: MIC and MBC, broth dilution, MRSA ATCC 43300; type: cell-based; conditions: Staphylococcus aureus
Method: (§1) The synthesized pleuromutilin derivatives 8–30 were tested against four Gram-positive bacteria (MRSA ATCC 43300, S. aureus ATCC 29213 and two clinical strains of S. aureus (AD3 and 144) isolated from Guangdong Province). Tiamulin was used as the positive control in this experiment.
(§2) MIC values were tested following our previous work. The derivatives were dissolved in an aqueous solution of 2.5% tween-80 and 2.5% DMSO to make a solution with a concentration of 1000 µg/mL. The solution was diluted 12 times with MH broth to give a concentration range of 32–0.01 µg/mL. The bacteria (5 × 10^5 CFU/mL) were added in each well. For each compound concentration, three parallel experiments were set. The 96-well plate was incubated for 22–26 h at 37 °C. The MIC value was recorded as the minimal concentration that inhibits the visible growth of tested bacteria completely.
(§3) The MBC of these pleuromutilin derivatives were tested according to a previously reference. […] Then, the values of MBC were determined by laying 100 μL aliquots from the wells onto the MH agar plates without visible growth. The MH agar plate was cultured for a further 22–26 h at 37 °C.

S. aureus (ATCC 29213) = test: MIC and MBC, broth dilution, S. aureus ATCC 29213; type: cell-based; conditions: Staphylococcus aureus, ATCC29213
Method: as §1, §2, §3

S. aureus (AD3) = test: MIC and MBC, broth dilution, S. aureus AD3; type: cell-based; conditions: Staphylococcus aureus; S. aureus AD3 (clinical strain)
Method: as §1, §2, §3

S. aureus (144) = test: MIC and MBC, broth dilution, S. aureus 144; type: cell-based; conditions: Staphylococcus aureus; S. aureus 144 (clinical strain)
Method: as §1, §2, §3

50S ribosome = test: SPR interaction and affinity analysis; type: binding, S. aureus ATCC 43300; conditions: 4 °C; for Avg ka / Avg kd: 1:1 Langmuir binding; for Kd: KD = Kd/Ka
Method: S. aureus ATCC 43300 was used to prepare the 50S ribosomal subunit the same way as described previously. Cells were grown overnight in Brain Heart Infusion broth at 37 °C and harvested for 1.5 h at an OD600. Cells were washed with 10 mM Tris-HCl twice at pH = 7.5, and resuspended in 5 mL buffer A (20 mM HEPES-HCl pH = 7.5, 21 mM Mg(OAc)2, 100 mM NH4Cl, 1 mM DTT, 1 mM EDTA). Cells were broken by an ultrasound crusher. The lysate was centrifuged for 90 min at 20,000× g to clear cell debris.
The solution was layered on a sucrose cushion of 15 mL (10 mM Hepes-KOH pH 7.5, 25 mM Mg(OAc)2, 500 mM KCl, […], 1 mM DTT, 0.5 mM EDTA). Centrifugation was carried out for 15 h at 45,000 rpm using an ultracentrifuge Beckman (Beckman Coulter, Shanghai, China), Type 70Ti rotor. The crude ribosome pellet was resuspended in buffer E (10 mM Hepes-KOH pH 7.5, 10 mM Mg(OAc)2, 100 mM KCl, 1 mM DTT, 0.5 mM EDTA), then layered on 9 mL of 7–30% sucrose gradient and centrifuged in an ultracentrifuge Beckman, type SW40Ti rotor at 17,100 rpm for 15 h. The gradient was analyzed on the AKTA explorer system (Amersham, UK). The fractions corresponding to the 50S ribosomal subunit were collected and further subjected to precipitation by PEG 20,000. The 50S ribosomal subunit pellet was gently dissolved in 200 µL of storage buffer (10 mM HEPES-HCl pH = 7.5, 10 mM Mg(OAc)2, 15 mM KCl, 60 mM NH4Cl, 1 mM DTT) and stored at −80 °C.
SPR affinity analysis was performed on the bScreen LB 991 Label-free Microarray System (Berthold Technologies, Black Forest, Germany) at 4 °C and Biodot AD-1520 Array Printer (BIODOT Inc., Irvine, CA, USA) with a Photo-cross-linker SensorCHIP™. Concentrations of each compound were diluted to 100 μM with DMSO as the printing working solution for immobilization. A Biodot AD-1520 Array Printer (BIODOT Inc., CA, USA) was used to control the photo-cross-linker sensor chip and print samples. Each sample was printed four times. In order to check the chip quality and check whether the detection system works, DMSO was used as a system-negative control and rapamycin as a positive control. All positive control dots were divided into four groups and printed on the four corners of the sensor chip. The sensor chip was dried in vacuum after the array print and quickly transferred to a spectra radiator for a photo cross-linking reaction. The sensor chip was washed with C2H5OH, DMF and H2O in turn and evaporated in a N2 atmosphere for 15 min. Then, the Flowcell Cover were assembled.
The 50S ribosome was diluted separately to 200 nM, 400 nM, 800 nM, 1600 nM and 3200 nM with PBST (pH = 7.4, 0.1% Tween 20). Different concentrations of ribosome solutions were injected at a flow rate of 0.5 μL⋅s^−1 for 600 s at the associating stage at 4 °C, followed by PBST at a flow rate of 0.5⋅μL·s^−1 for 360 s at each dissociating stage. Then, the surface was regenerated with Glycine-HCl (pH = 2.0) at a flow rate of 2⋅μL·s^−1 for 300 s.
The raw data of the binding process of compounds and the 50S ribosome were recorded in real time. We compared the response unit (RU) of surface resonance to determine the different binding affinity between each sample dot. The process and analysis of association rate constants (Ka) and dissociation rate constants (Kd) and the equilibrium dissociation constant (KD, Kd/Ka) were performed using the data analysis software of the bScreen LB 991 Label-free Microarray System according to a single-site binding model (1:1 Langmuir binding) with mass transfer limitations for binding kinetics determination.

MRSA = test: Neutropenic murine thigh infection model; type: in vivo, mice; conditions: 20 mg/kg intravenously, 24 h, compared to the no-drug control group
Method: The neutropenic murine thigh infection model experiment was performed as described in the literature. Six-week-old SPF-ICR female mice weighing 24–28 g were used for this study. The mice were injected with cyclophosphamide (Mead Johnson Pharmaceuticals, Evansville, Indiana—IN, USA) at a dose of 150 mg/kg 4 days and at a dose of 100 mg/kg 1 day before the experiment to reduce neutrophils and achieve immunosuppression (<0.1 × 10^9/L). A total of 0.1 mL MH broth (MRSA concentration approximately 10^7 CFU/mL) was injected into the posterior thigh of mice to establish the infection model. After the thighs of the mice were infected for 2 h, these mice were randomly divided into 3 groups (3 per group). […] A total of 24 h after the completion of the drug, the mice were euthanized and their thigh tissues were collected. Then, their thigh tissues were weighed and homogenized, respectively, in 3 mL of iced sterile saline. Tissue homogenate was serially diluted 10-fold and plated on MH agar. The resulting bacterial colonies were determined after incubation for 24 h.

MRSA ATCC 43300 = tested on: MRSA ATCC 43300; set-up: method as in PMID 33137559; conditions: cited from earlier work
CYP3A4 = CYP3A4 (Homo sapiens, UniProt P08684); conditions: read-out: IC50 CYP3A4, cited from earlier work
CYP3A4, sequence (P08684 whole entry): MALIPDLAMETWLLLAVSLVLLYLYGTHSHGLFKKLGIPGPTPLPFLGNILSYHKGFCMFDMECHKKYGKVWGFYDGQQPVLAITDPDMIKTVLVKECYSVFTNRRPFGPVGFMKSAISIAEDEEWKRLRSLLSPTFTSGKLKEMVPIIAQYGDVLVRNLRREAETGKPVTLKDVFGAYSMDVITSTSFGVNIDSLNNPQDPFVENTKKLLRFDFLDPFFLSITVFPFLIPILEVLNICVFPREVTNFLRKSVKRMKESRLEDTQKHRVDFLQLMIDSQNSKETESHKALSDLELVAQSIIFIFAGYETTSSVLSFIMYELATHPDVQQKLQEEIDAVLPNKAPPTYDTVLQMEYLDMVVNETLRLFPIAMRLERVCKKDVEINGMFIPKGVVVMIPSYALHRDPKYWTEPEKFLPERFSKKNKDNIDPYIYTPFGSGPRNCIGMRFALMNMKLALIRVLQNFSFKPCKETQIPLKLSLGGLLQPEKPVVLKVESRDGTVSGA

| MIC [1] [µg/mL] | MIC (S. aureus (ATCC 29213)) [µg/mL] | MIC (S. aureus (AD3)) [µg/mL] | MIC (S. aureus (144)) [µg/mL] | Avg kd (50S ribosome) [s⁻¹] | Kd (50S ribosome) [µM] | melting point [°C] | SMILES | MBC [1] [µg/mL] | MBC (S. aureus (ATCC 29213)) [µg/mL] | MBC (S. aureus (AD3)) [µg/mL] | MBC (S. aureus (144)) [µg/mL] | Avg ka (50S ribosome) [M⁻¹ s⁻¹] | reduction of MRSA load in thigh (MRSA) | PAE (MRSA ATCC 43300; 2× MIC) [h] | PAE (MRSA ATCC 43300; 4× MIC) [h] | IC50 (CYP3A4) [µM] | IC50 (CYP3A4; converted with MW) [µM] |
| --- | --- | --- | --- | --- | --- | --- | --- | --- | --- | --- | --- | --- | --- | --- | --- | --- | --- |
| 0.25 (≈ 0.506 µM) | 0.5 (≈ 1.01 µM) | 1 (≈ 2.03 µM) | 1 (≈ 2.03 µM) | 3.03e-06 | 0.025 |  | C=C[C@]1(C)C[C@@H](OC(=O)CSCCN(CC)CC)[C@]2(C)[C@H](C)CC[C@]3(CCC(=O)[C@H]32)[C@@H](C)[C@@H]1O [Tiamulin, tiamulin, reference compound] | 0.25 (≈ 0.506 µM) | 1 (≈ 2.03 µM) | 1 (≈ 2.03 µM) | 8 (≈ 16.2 µM) | 121 | ~ 0.6 log10 CFU/mL | 1.65 | 2.04 | 1.64 | 1.64 |
| 32 (≈ 53.2 µM) | 32 (≈ 53.2 µM) | > 32 | 32 (≈ 53.2 µM) | 0.0375 | 993 | 76 to 79 | C=C[C@]1(C)C[C@@H](OC(=O)CNCCCCCCCCCCCCCCCC)[C@]2(C)[C@H](C)CC[C@]3(CCC(=O)[C@H]32)[C@@H](C)[C@@H]1O [Compound 24, 22-Hexadecylamineyl-22-deoxypleuromutilin] | > 32 | > 32 | > 32 | > 32 |  |  |  |  |  |  |
| 0.12 (≈ 0.225 µM) | 0.25 (≈ 0.469 µM) | 0.25 (≈ 0.469 µM) | 0.5 (≈ 0.939 µM) | 0.197 | 6350 | 97 to 98 | C=C[C@]1(C)C[C@@H](OC(=O)CNc2ccc(Br)cc2)[C@]2(C)[C@H](C)CC[C@]3(CCC(=O)[C@H]32)[C@@H](C)[C@@H]1O [Compound 13, 22-(4-Bromoanilineyl)-22-deoxypleuromutilin] | 0.12 (≈ 0.225 µM) | 0.25 (≈ 0.469 µM) | 1 (≈ 1.88 µM) | 1 (≈ 1.88 µM) |  |  |  |  |  |  |
| 16 (≈ 32.7 µM) | 16 (≈ 32.7 µM) | 32 (≈ 65.3 µM) | 32 (≈ 65.3 µM) | 0.00073 | 6.41 | 76 to 77 | C=C[C@]1(C)C[C@@H](OC(=O)CNCCCCCCCC)[C@]2(C)[C@H](C)CC[C@]3(CCC(=O)[C@H]32)[C@@H](C)[C@@H]1O [Compound 22, 22-Octylamineyl-22-deoxypleuromutilin] | 32 (≈ 65.3 µM) | > 32 | > 32 | > 32 | 114 |  |  |  |  |  |
| 0.12 (≈ 0.246 µM) | 0.12 (≈ 0.246 µM) | 0.125 (≈ 0.256 µM) | 0.25 (≈ 0.512 µM) | 0.00224 | 26 | 158 to 160 | C=C[C@]1(C)C[C@@H](OC(=O)CNc2cccc(Cl)c2)[C@]2(C)[C@H](C)CC[C@]3(CCC(=O)[C@H]32)[C@@H](C)[C@@H]1O [Compound 10, 22-(3-Chloroanilineyl)-22-deoxypleuromutilin] | 0.12 (≈ 0.246 µM) | 0.25 (≈ 0.512 µM) | 0.5 (≈ 1.02 µM) | 0.5 (≈ 1.02 µM) |  |  |  |  |  |  |
